Source: patent US10543195B2, “Peptides for skin rejuvenation and methods of using the same” (Anteis SA, priority 2013, dated 2020)
* marks the point of attachment. Palmitoyl = CCCCCCCCCCCCCCCC(=O)*

Assays:
[1] = system: collagen I (alpha 1); experiment: RT-qPCR gene expression in NHDF: collagen I (alpha 1); format: cell-based, human; details: 24 h, vs control; for stimulation of formation of collagen I (alpha 1) (mRNA, RT-qPCR): 300 ppm (0.03%)
Experimental: (§1) Normal human dermal fibroblasts (NHDF); used at the 8th passage, were cultured in culture medium (DMEM supplemented with 10% fetal calf serum, 2 mM L-glutamine, 50 U/ml penicillin, and 50 μg/ml streptomycin) in 24-well plates for 48 h at 37° C. and 5% CO2 with a renewal of culture medium after 24 h. The culture medium was then removed, replaced by assay medium (DMEM culture medium supplemented with 1% fetal calf serum, 2 mM L-glutamine, 50 U/ml penicillin, and 50 μg/ml streptomycin) and the cells were further incubated for 24 h. The cells were then treated with the test peptides, or not (control), or with the reference TGF-beta 1 and incubated for 24 h. All experimental conditions were performed 4-times (n=4). At the end of the incubation, the cells were washed in PBS solution and immediately frozen at about −80° C. The expression of the markers was analyzed using quantitative real time polymerase chain reaction (RT-qPCR) method on mRNA extracted from the cell monolayers for each treatment; whereby the replicates were pooled before RNA extraction. Analysis of gene expression was performed in duplicate (n=2) using a PCR array. Total RNA was extracted from each sample using TriPure Isolation Reagent® according to the supplier's instructions. The amount and quality of RNA were evaluated using a lab-on-a-chip Bioanalyzer (Agilent Technologies). […] Quantification of cDNA was performed using Nanovue (GE Healthcare) and cDNA was adjusted. […]
(§2) The incorporation of the fluorescence in amplified DNA was continuously measured during the PCR cycles. […] The value selected for RE calculations is the “output point” (Ct) of the fluorescence curve. For a considered marker, the highest is the cycle number; the lowest is the mRNA quantity. […]
(§3) This evaluation was realized with non-cytotoxic concentrations of the test peptides. Cytotoxicity of the test peptides in the assay medium was previously determined in NHDF by the MTT reduction assay and morphological observations with help of microscope after a 24 h incubation time. […]

[2] = system: collagen III (alpha 1); experiment: RT-qPCR gene expression in NHDF: collagen III (alpha 1); format: cell-based, human; details: 24 h, vs control; for stimulation of formation of collagen III (alpha 1) (mRNA, RT-qPCR): 300 ppm (0.03%)
Experimental: as §1, §2, §3

[3] = system: collagen V (alpha 1); experiment: RT-qPCR gene expression in NHDF: collagen V (alpha 1); format: cell-based, human; details: 300 ppm (0.03%), 24 h, vs control
Experimental: as §1, with “All experimental conditions were performed 4-times (n=4). At the end of the incubation, the cells were washed in PBS solution and immediately frozen at about −80° C.” left out, “Analysis of gene expression was performed in duplicate (n=2) using a PCR array. Total RNA was extracted from each sample using TriPure Isolation Reagent® according to the supplier's instructions.” left out
as §2

[4] = system: collagen VI (alpha 1); experiment: RT-qPCR gene expression in NHDF: collagen VI (alpha 1); format: cell-based, human; details: 300 ppm (0.03%), 24 h, vs control
Experimental: as §1, with “All experimental conditions were performed 4-times (n=4). At the end of the incubation, the cells were washed in PBS solution and immediately frozen at about −80° C.” left out, “Analysis of gene expression was performed in duplicate (n=2) using a PCR array. Total RNA was extracted from each sample using TriPure Isolation Reagent® according to the supplier's instructions.” left out
as §2

[5] = system: collagen VII (alpha 1); experiment: RT-qPCR gene expression in NHDF: collagen VII (alpha 1); format: cell-based, human; details: 300 ppm (0.03%), 24 h, vs control
Experimental: as §1, with “All experimental conditions were performed 4-times (n=4). At the end of the incubation, the cells were washed in PBS solution and immediately frozen at about −80° C.” left out, “Analysis of gene expression was performed in duplicate (n=2) using a PCR array. Total RNA was extracted from each sample using TriPure Isolation Reagent® according to the supplier's instructions.” left out
as §2

[6] = system: collagen XVI (alpha 1); experiment: RT-qPCR gene expression in NHDF: collagen XVI (alpha 1); format: cell-based, human; details: 300 ppm (0.03%), 24 h, vs control
Experimental: as §1, with “All experimental conditions were performed 4-times (n=4). At the end of the incubation, the cells were washed in PBS solution and immediately frozen at about −80° C.” left out, “Analysis of gene expression was performed in duplicate (n=2) using a PCR array. Total RNA was extracted from each sample using TriPure Isolation Reagent® according to the supplier's instructions.” left out
as §2

[7] = system: elastin; experiment: RT-qPCR gene expression in NHDF: elastin; format: cell-based, human; details: 300 ppm (0.03%), 24 h, vs control
Experimental: as §1, with “All experimental conditions were performed 4-times (n=4). At the end of the incubation, the cells were washed in PBS solution and immediately frozen at about −80° C.” left out, “Analysis of gene expression was performed in duplicate (n=2) using a PCR array. Total RNA was extracted from each sample using TriPure Isolation Reagent® according to the supplier's instructions.” left out
as §2

[8] = system: laminin (alpha 4); experiment: RT-qPCR gene expression in NHDF: laminin (alpha 4); format: cell-based, human; details: 300 ppm (0.03%), 24 h, vs control
Experimental: as §1, with “All experimental conditions were performed 4-times (n=4). At the end of the incubation, the cells were washed in PBS solution and immediately frozen at about −80° C.” left out, “Analysis of gene expression was performed in duplicate (n=2) using a PCR array. Total RNA was extracted from each sample using TriPure Isolation Reagent® according to the supplier's instructions.” left out
as §2

[9] = system: hyaluronan synthase 2; experiment: RT-qPCR gene expression in NHDF: hyaluronan synthase 2; format: cell-based, human; details: 300 ppm (0.03%), 24 h, vs control
Experimental: as §1, with “All experimental conditions were performed 4-times (n=4). At the end of the incubation, the cells were washed in PBS solution and immediately frozen at about −80° C.” left out, “Analysis of gene expression was performed in duplicate (n=2) using a PCR array. Total RNA was extracted from each sample using TriPure Isolation Reagent® according to the supplier's instructions.” left out
as §2

[10] = system: fibrillin 1; experiment: RT-qPCR gene expression in NHDF: fibrillin 1; format: cell-based, human; details: 300 ppm (0.03%), 24 h, vs control
Experimental: as §1, with “All experimental conditions were performed 4-times (n=4). At the end of the incubation, the cells were washed in PBS solution and immediately frozen at about −80° C.” left out, “Analysis of gene expression was performed in duplicate (n=2) using a PCR array. Total RNA was extracted from each sample using TriPure Isolation Reagent® according to the supplier's instructions.” left out
as §2

[11] = system: heparan sulfate protoglycan 2; experiment: RT-qPCR gene expression in NHDF: heparan sulfate protoglycan 2; format: cell-based, human; details: 300 ppm (0.03%), 24 h, vs control
Experimental: as §1, with “All experimental conditions were performed 4-times (n=4). At the end of the incubation, the cells were washed in PBS solution and immediately frozen at about −80° C.” left out, “Analysis of gene expression was performed in duplicate (n=2) using a PCR array. Total RNA was extracted from each sample using TriPure Isolation Reagent® according to the supplier's instructions.” left out
as §2

[12] = system: hyaluronic acid; experiment: Hyaluronic acid ELISA in culture supernatant of NHDF; format: cell-based, human; details: 72 h
From the text: For the interpretation of the data related to the stimulation of the formation of extracellular matrix components as determined during the in vitro experiments, a “significant” stimulation of the formation of extracellular matrix components means a stimulation of at least 20% more than measured using a control material under identical experimental conditions. The control material is the identical material (here: assay medium) as used when testing the active (here: peptide(s)) but without the active(s).
Normal human dermal fibroblasts (NHDF); used at the 8th passage, were cultured in culture medium (DMEM supplemented with 10% fetal calf serum, 2 mM L-glutamine, 50 U/ml penicillin, and 50 μg/ml streptomycin) in 96-well plates for 24 h at 37° C. and 5% CO2.
Afterwards, the culture medium was removed and replaced by assay medium (DMEM culture medium supplemented with 2% fetal calf serum, 2 mM L-glutamine, 50 U/ml penicillin, and 50 μg/ml streptomycin) containing the test peptides or not (control). The cells were then incubated for 72 h. All experimental conditions were performed 3-times (n=3). At the end of the incubation, culture supernatants were collected and immediately frozen at about −80° C.
Hyaluronic acid was quantified in the culture supernatant using the Duoset Hylaluronan ELISA kit (R&D Systems Ref. DY3614, 0.37 ng/ml as low detection limit) according to the provider's specifications.
This evaluation was realized with non-cytotoxic concentrations of the test peptides. Cytotoxicity of the test peptides in the assay medium was previously determined in NHDF by the MTT reduction assay and morphological observations with help of microscope after a 72 h incubation time.

[13] = system: rat experimental wounds; details: cited from earlier work
[14] = system: hyaluronic acid; details: oil-in-water vehicle containing 50 ppm GEKG for sixty days; cited from earlier work
[15] = system: human skin explants; details: 3H-proline-incorporation; cited from earlier work
[16] = system: collagen I; details: ELISA, normal human dermal fibroblasts; cited from earlier work
[17] = system: collagen III; details: immunofluorescence, normal human dermal fibroblasts; cited from earlier work

## CCCCCCCC(=O)NCCC(=O)NC(Cc1cnc[nH]1)C(=O)O (stereo not drawn) [Octanoyl Carnosine, Octanoyl-beta-Ala-His-OH]
[1]
  stimulation of formation of collagen I (alpha 1) (mRNA, RT-qPCR): 38%
[2]
  stimulation of formation of collagen III (alpha 1) (mRNA, RT-qPCR): 120%
[3]
  stimulation of formation of collagen V (alpha 1) (mRNA, RT-qPCR): 35%
[4]
  stimulation of formation of collagen VI (alpha 1) (mRNA, RT-qPCR): 46%
[5]
  stimulation of formation of collagen VII (alpha 1) (mRNA, RT-qPCR): 97%
[6]
  stimulation of formation of collagen XVI (alpha 1) (mRNA, RT-qPCR): 91%
[7]
  stimulation of formation of elastin (mRNA, RT-qPCR): 51%
[8]
  stimulation of formation of laminin (alpha 4) (mRNA, RT-qPCR): 20%
[9]
  stimulation of formation of hyaluronan synthase 2 (mRNA, RT-qPCR): 23%
[10]
  stimulation of formation of fibrillin 1 (mRNA, RT-qPCR): 23%
[11]
  stimulation of formation of heparan sulfate protoglycan 2 (mRNA, RT-qPCR): 79%
[12]; alone at 100 pm
  stimulation of synthesis of hyaluronic acid: −5%

## NCCC(=O)N[C@@H](Cc1cnc[nH]1)C(=O)O [beta-alanyl-histidine]
[1]
  stimulation of formation of collagen I (alpha 1) (mRNA, RT-qPCR): 28%
[2]
  stimulation of formation of collagen III (alpha 1) (mRNA, RT-qPCR): 24%

## GHK-Cu
[13]
  collagen accumulation: statistical significant increase of collagen accumulation

## Gly-His-Lys [GHK]
[13]
  collagen accumulation: no effect

## NH2-Gly-Glu-Lys-Gly-OH (H-GEKG-OH)
[12]; alone at 100 or 300 ppm
  stimulation of synthesis of hyaluronic acid: up to 25%
[14]
  hyaluronic acid formation: stimulate hyaluronic acid formation

## Palmitoyl-Gly-His-Lys-OH [Palmitoyl-GHK]
[12]; alone at 10 or 30 ppm
  stimulation of synthesis of hyaluronic acid: up to 11%
[15]
  increase of collagen synthesis: up to 75.3%

## TGF-beta 1: reference TGF-beta 1 (10 ng/ml) in the gene expression test
[1]; 10 ng/ml
  stimulation of formation of collagen I (mRNA, RT-qPCR): 245%
[2]; 10 ng/ml
  stimulation of formation of collagen III (mRNA, RT-qPCR): 164%

## palmitoyl-KMO2K—OH
[16]
  increase of collagen I formation: 111%
[17]
  increase of collagen III formation: 104%
